Measurements reported in patent US12599614B2, “Methods and pharmaceutical compositions for the treatment and prophylaxis of microbial infectious diseases and associated inflammatory disorders and for the treatment and prophylaxis of aging and associated diseases” (MD VAULT LLC, priority 2020, dated 2026).

Experiments:
2-year-old aged mice = test: Senescence biomarkers in tissues of aged mice; type: in vivo; conditions: aged liver, muscle and skin tissues; ip 20 mg/kg X and/or 4 mg/kg Y daily for 30 days; vs DMSO vehicle; P<0.01
Method: To test if the drugs X and Y may reduce senescence in the tissues of aged mice, we intraperitoneally injected 2-year-old aged mice (n=10/group) with 20 mg/kg of X, or 4 mg/kg of Y, or both 20 mg/kg of X and 4 mg/kg of Y, relative to the DMSO vehicle control, on a daily basis for 30 days. Staining of liver, muscle and skin tissue sections for SA-β-gal activity was performed using the Senescence β-Galactosidase Staining Kit (Cell Signaling Technology) according to manufacturer's protocols. Protein expression of p16INK4A and H3K9me3 were evaluated by densitometric quantification of Westem blots of the liver, muscle and skin tissue samples.

[1] = system: 1 year-old aged mice treated with intratracheal bleomycin; test: Bleomycin lung fibrosis in aged mice (COPD/IPF model); type: in vivo; conditions: daily oral gavage over 3 weeks; intratracheal bleomycin 3 mg/kg
Method: Daily oral gavage of the drug combination X and Y, relative to X alone or Y alone or the vehicle over 3 weeks, led to decreases in aging-associated lung fibrosis in 1 year-old aged mice treated with intratracheal bleomycin (3 mg/kg in 50 ul phosphate buffered saline or PBS) to model chronic obstructive pulmonary disease (COPD) and idiopathic pulmonary fibrosis (IPF).

[2] = system: adult female rats (PCOS model); test: Estrus cycles in DHEA/diet PCOS rat model; type: in vivo; conditions: daily oral gavage over 6 weeks; DHEA 60 mg/kg sc and high fat-high sugar-high cholesterol diet
Method: Daily oral gavage of the drug combination X and Y, relative to X alone or Y alone or the vehicle over 6 weeks, led to restoration of estrus cycles in adult female rats treated with subcutaneous dehydroepiandrosterone (DHEA; 60 mg/kg body weight) and fed with a high fat-high sugar-high cholesterol diet ad libitum to model premature ovarian aging in polycystic ovary syndrome (PCOS).

[3] = system: primary human skeletal muscle cells; test: Metabolism and gene pathway profiling of muscle cells; type: cell-based; conditions: single agent: X alone 100 mg/L or Y alone 2 mg/L
Method: Calorie restriction is known to ameliorate the effects of aging, by altering cellular bioenergetic stress and promoting mitochondrial activity, the unfolded protein response (UPR), the secretion of beneficial cytokines, and an increase in stem cell regeneration. To test how the drug combination X and Y mimics the effects of calorie restriction (CR), we profiled the metabolism of primary human skeletal muscle cells at passage 15 treated with X (100 mg/L) and Y (2 mg/L), compared to X alone (100 mg/L) or Y alone (2 mg/L).

[4] = system: 1 year-old aged diabetic mice; test: Tissue regeneration in 1 year-old aged diabetic mice, oral gavage; type: in vivo; conditions: single agent: X alone 20 mg/kg or Y alone 4 mg/kg, daily oral gavage, 6 weeks

Row | Compound | SA-β-gal activity staining (senescence biomarker) (2-year-old aged mice) | lung fibrosis (% fibrotic area, Masson trichrome staining, ImageJ) [1] | estrus cycles (vaginal smear analysis) [2] | beneficial anti-aging effects seen with X and Y (ATP, acetyl-CoA, acetylation, Pink1, mitochondrial protein and DNA, UPR, ROS, cytokine and stem cell pathways) [3] | beneficial anti-aging effects seen with X and Y (liver, β islet, hair, wound, muscle regeneration, body mass) [4]
1 | COc1ccc(CN2CCNCC2)c(OC)c1OC [Y, 1-[(2,3,4-trimethoxyphenyl)methyl]piperazine] | but not X alone or Y alone | None of these beneficial anti-aging effects were observed | all of the rats were frozen in either the estrus or proestrus stages | None of these beneficial anti-aging effects were observed | None of these beneficial anti-aging effects were observed
2 | CC(=O)Oc1ccccc1C(=O)O [X, 2-acetoxybenzoic acid] | but not X alone or Y alone | None of these beneficial anti-aging effects were observed | all of the rats were frozen in either the estrus or proestrus stages | None of these beneficial anti-aging effects were observed | None of these beneficial anti-aging effects were observed
